pIC50: −log10 of the molar value.
Tests used:
[1] = target: T1, iCasp9 in CAR T cells directed against desmoglein-3 (Homo sapiens, UniProt P55211+P62942, F37V); assay: Caspase activation / killing of iCasp9 CAR T cells by AP20187; assay type: cell-based; conditions: T cells transduced with CARs containing iCasp9; read-out: IC50 (fraction of dead cells)
T1 construct: expressed in transfected cells; host or cells: T cells
Excerpt: (§1) The iCasp9 system has been previously incorporated into CAR T cells directed against desmoglein-3 by others for studying pemphigus. T cells were transduced with two different CARs containing iCasp9 (iC9) and one CAR without iC9. The inducible caspase 9 was activated by treatment with varying concentrations of AP20187, a chemical inducer of dimerization which is an analog of AP1903 (FIG. 9). Of note is that the fraction of dead cells is less than 100% because not all of the cells were transduced. The IC50 of AP20187 is <0.1 nM. Nontransduced cells (NTD) and cells without iC9 were not killed by AP20187.

[2] = test system: iCasp9 in CAR T cells directed against desmoglein-3; assay: as above; assay type: cell-based; conditions: nontransduced cells (NTD) and cells without iC9
Excerpt: as §1

[3] = target: T2, MDA-MB231 cells transduced with DHFR-iCasp9 (Escherichia coli, UniProt P0ABQ4); conditions: for activation of the DHFR-iCasp9 suicide gene: MDA-MB231 cells transduced with DHFR-15-iCasp9 or DHFR-18-iCasp9
T2 sequence (P0ABQ4 1-159): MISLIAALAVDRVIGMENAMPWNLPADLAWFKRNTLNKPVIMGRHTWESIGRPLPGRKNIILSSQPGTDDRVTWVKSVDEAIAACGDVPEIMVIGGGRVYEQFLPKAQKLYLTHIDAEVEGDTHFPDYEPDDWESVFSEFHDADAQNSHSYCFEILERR
T2 sequence (P55211 135-416 partner): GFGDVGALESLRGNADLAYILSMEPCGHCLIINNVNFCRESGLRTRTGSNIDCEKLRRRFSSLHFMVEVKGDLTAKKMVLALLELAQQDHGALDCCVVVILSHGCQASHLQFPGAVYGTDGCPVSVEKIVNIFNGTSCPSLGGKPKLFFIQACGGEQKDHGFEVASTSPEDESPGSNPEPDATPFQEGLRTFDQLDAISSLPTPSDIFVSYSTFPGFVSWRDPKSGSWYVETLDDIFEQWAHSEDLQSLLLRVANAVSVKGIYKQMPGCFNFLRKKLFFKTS
Experimental: (§2) Procedure for DHFR-iCasp9 Cell Kill Assay with Bis-TMP Compounds: • Cell culture • Cell lines (MDA-MB231-luc transduced with DHFR-icasp9 with different linker lengths) were cultured in DMEM (Gibco) with 10% fetal bovine serum (Sigma), 100 U/mL penicillin and 100 ug/mL streptomycin (Invitrogen). • Incubation is done at 37° C. with 5% CO2 • Cell assay • Cells were plated on 96 well black plate, 3×10^4 cells/well. • The next day, cells were treated with varying concentrations of Bis-TMP compounds (Bis-TMP-#). • Cells were incubated for 24 hours and luciferin was added (120 ug/mL), after which bioluminescence was measured using Perkin Elmer Enspire Multi-mode Plate reader. Luminescence Assay with HCT116-L106P-tsLuc Cells Following Treatment with Shield-1 Compounds: • Day 1: Plate 50,000 cells/50 uL/well on 96 well black plate. • Day 2: • Add compounds (FP-Shield-1, control Shield-1 in 50 uL volume). • Incubate for 24 h at 37° C. with CO2. • Day 3: Add luciferin and read immediately.

iCasp9 modified T cells = conditions: cited from earlier work
F36V-FKBP = F36V-FKBP (Homo sapiens, UniProt P62942, F37V); conditions: cited from earlier work; for binding to mutant F36V-FKBP relative to the wild-type protein: F36V-FKBP versus wild-type FKBP
[4] = test system: LID system (F36V-FKBP with degron) fused to CAR in T cells; conditions: preclinical studies; cited from earlier work
[5] = test system: luciferase fused to the FKBP12 L106P destabilizing domain (L106P-tsLuc); assay: Luminescence assay with HCT116-L106P-tsLuc cells; assay type: cell-based; conditions: HCT116 cells expressing L106P-tsLuc, 3 nM to 10 uM
Experimental: as §2

CC[C@H](C(=O)N1CCCC[C@H]1C(=O)O[C@H](CCc1ccc(OC)c(OC)c1)c1cccc(OCC(=O)NCC(CNC(=O)COc2cccc([C@@H](CCc3ccc(OC)c(OC)c3)OC(=O)[C@@H]3CCCCN3C(=O)[C@@H](CC)c3cc(OC)c(OC)c(OC)c3)c2)CN(C)C)c1)c1cc(OC)c(OC)c(OC)c1 [AP20187]
pIC50 [1]: > 10.00 | killing of control cells [2]: not killed

COc1cc(Cc2cnc(N)nc2N)cc(OC)c1OCCCCC(=O)NCCCOCCCNC(=O)CCCCOc1c(OC)cc(Cc2cnc(N)nc2N)cc1OC [Bis-TMP-21, N,N′-(oxybis(propane-3,1-diyl))bis(5-(4-((2,4-diaminopyrimidin-5-yl)methyl)-2,6-dimethoxyphenoxy)pentanamide)]
activation of the DHFR-iCasp9 suicide gene [3]: potent activation of the DHFR-iCasp9 suicide gene at low nM concentrations

CC[C@H](C(=O)N1CCCC[C@H]1C(=O)O[C@H](CCc1ccc(OC)c(OC)c1)c1cccc(OCC(=O)NCCNC(=O)COc2cccc([C@@H](CCc3ccc(OC)c(OC)c3)OC(=O)[C@@H]3CCCCN3C(=O)[C@@H](CC)c3cc(OC)c(OC)c(OC)c3)c2)c1)c1cc(OC)c(OC)c(OC)c1 [AP1903]
adverse events in humans (iCasp9 modified T cells; given to humans): without any reported serious adverse events | modified T cells eliminated (iCasp9 modified T cells; patients with GVHD, single dose, within 30 min after administration): more than 90% | graft-versus-host disease outcome (iCasp9 modified T cells; patients with GVHD, single dose): terminated without abrogating immune reconstitution | binding to mutant F36V-FKBP relative to the wild-type protein (F36V-FKBP): greater than three orders of magnitude

COc1cc(Cc2cnc(N)nc2N)cc(OC)c1OCCCCC(=O)NCCCOCCOCCOCCCNC(=O)CCCCOc1c(OC)cc(Cc2cnc(N)nc2N)cc1OC [Bis-TMP-27, N,N′-(((oxybis(ethane-2,1-diyl))bis(oxy))bis(propane-3,1-diyl))bis(5-(4-((2,4-diaminopyrimidin-5-yl)methyl)-2,6-dimethoxyphenoxy)pentanamide)]
activation of the DHFR-iCasp9 suicide gene [3]: potent activation of the DHFR-iCasp9 suicide gene at low nM concentrations | cells killed ([3]; MDA-MB231 cells transduced with DHFR-18-iCasp9, 24 hours): ~ 70% | pIC50 ([3]; read-out: IC50 of cell killing, MDA-MB231 cells transduced with DHFR-18-iCasp9, 24 hours): ~8.30

CC[C@H](C(=O)N1CCCC[C@H]1C(=O)O[C@H](CCc1ccc(OC)c(OC)c1)c1cccc(OCCN2CCOCC2)c1)c1cc(OC)c(OC)c(OC)c1 [Shield-1]
binding to mutant F36V-FKBP relative to the wild-type protein (F36V-FKBP): greater than three orders of magnitude | pIC50 (F36V-FKBP; read-out: IC50 for the mutant protein F36V-FKBP): 8.48 | IC50 for control of CAR expression [4]: in the nM range | protein stabilization (luminescence) [5]: equivalent protein stabilization when compared to the literature

Source: patent US12697403B2, “Small molecules for dual function positron emission tomography (PET) and cell suicide switches” (THE TRUSTEES OF THE UNIVERSITY OF PENNSYLVANIA, priority 2017, dated 2026)
